# PMC11769294, “(E)-1-(3-(3-Hydroxy-4-Methoxyphenyl)-1-(3,4,5-Trimethoxyphenyl)allyl)-1H-1,2,4-Triazole and Related Compounds: Their Synthesis and Biological Evaluation as Novel Antimitotic Agents Targeting Breast Cancer” (Pharmaceuticals, 2025)
# Where two headings read alike, the source gives them in different places.
# Tests used:
# SF-539 (CNS Cancer) = experiment: NCI60 screen (SRB); assay type: cell-based, human; settings: 48 h; for growth percent: one dose 10 µM
# SR (Leukemia) = experiment: NCI60 screen (SRB); assay type: cell-based, human; settings: 48 h; for growth percent: one dose 10 µM
# SNB-75 (CNS Cancer) = experiment: NCI60 screen (SRB); assay type: cell-based, human; settings: 48 h; for growth percent: one dose 10 µM
# OVCAR-8 (Ovarian Cancer) = experiment: NCI60 screen (SRB); assay type: cell-based, human; settings: 48 h; for growth percent: one dose 10 µM
# MOLT-4 (Leukemia) = experiment: NCI60 screen (SRB); assay type: cell-based, human; settings: one dose 10 µM, 48 h
# A498 (Renal Cancer) = experiment: NCI60 screen (SRB); assay type: cell-based, human; settings: 48 h; for growth percent: one dose 10 µM
# LOX IMVI (Melanoma) = experiment: NCI60 screen (SRB); assay type: cell-based, human; settings: 48 h; for growth percent: one dose 10 µM
# [1] = test system: EKVX (Non-Small Cell Lung Cancer); experiment: NCI60 screen (SRB); assay type: cell-based, human; settings: 48 h; for growth percent: one dose 10 µM
# UO-31 (Renal Cancer) = experiment: NCI60 screen (SRB); assay type: cell-based, human; settings: 48 h; for growth percent: one dose 10 µM
# COLO 205 (Colon Cancer) = experiment: NCI60 screen (SRB); assay type: cell-based, human; settings: 48 h; for growth percent: one dose 10 µM
# [2] = test system: MCF-7 breast cancer cells; experiment: alamarBlue cell viability assay; assay type: cell-based; settings: Homo sapiens, MCF7, MCF-7
# Method: Figure 5 Preliminary cell viability data for Series 1: (A) compounds 22a–22g and chalcone 20b and Series 2: (B) compounds 23a–e and chalcone 20b in MCF-7 breast cancer cells. Cell proliferation of MCF-7 cells was determined with an alamarBlue assay (seeding density 2.5 × 10^4 cells/mL per well for 96-well plates). Compound concentrations of either 1 or 0.1 μM for 72 h were used to treat the cells (in triplicate) with control wells containing vehicle ethanol (1% v/v). The mean value ± SEM for three independent experiments is shown. The positive controls used are CA-4 and phenstatin (1.0 μM and 0.1 μM). Statistical analysis was performed using One-way ANOVA with the Sidak multiple comparison test (***, p < 0.001).
# HL-60 cells were suspension cells and the seeding density for the viability assay was 25,000 cells/mL. MCF-7 cells (adherent) were cultured in Minimum Essential Media (MEM) with GlutaMAX™-I, supplemented with 1% (v/v) non-essential amino acids, 10% (v/v) fetal bovine serum (FBS), purchased from BD Biosciences (Edmund Halley Road, Oxford, UK), and 1% (v/v) penicillin/streptomycin 5000 U/mL. The MCF-7 cells used in the screening of the compounds during these experiments were mycoplasma-free. The seeding density of MCF-7 in the viability assay was 25,000 cells/mL and 50,000 cells/mL in the FACS assay. Normal breast cells (MCF-10A) (adherent) were cultured in Dulbecco’s Modified Eagle Medium: Nutrient Mixture F-12 (DMEM/F12; Gibco) supplemented with 5% horse serum (Invitrogen, Waltham, MA, USA), 20 ng/mL epidermal growth factor (Merck Millipore, Burlington, MA, USA), 0.5 μg/mL hydrocortisone (Sigma, Kanagawa, Japan), 100 ng/mL cholera toxin (Sigma), 10 μg/mL insulin (Sigma), and penicillin/streptomycin 5000 U/mL (1%) (Gibco, Waltham, MA, USA). […] MDA-MB-231 cells were cultured in Dulbecco’s Modified Eagle Medium, which was supplemented with 10% (v/v) fetal bovine serum (FBS) and 1% (v/v) penicillin/streptomycin 5000 U/mL. When not in use, all cells were kept in liquid nitrogen and frozen in a freezing media made of 90% FBS and 10% DMSO. All cells were grown in an atmosphere of 5% CO2/95% air in T75 culture flasks. The media was changed every 2–3 days and media was always prewarmed to 37 °C. All were sub-cultured every 3–4 days by trypsinization using TrypLE™ Express enzyme when confluence was reached to allow growth, prevent excessive cell death, and minimize the risk of infections derived by over-confluence. For the cell viability assay, the number of cells per milliliter was 25,000 cells/mL while the FACS assay utilized 50,000 cells/mL. Cells were maintained at 37 °C in 5% CO2 in a humidified incubator.
# The biochemical assays were performed in triplicate and on at least three independent occasions to facilitate the determination of mean values. For the viability assay, cells were grown until 80% confluent. Adherent cells such as MCF-7, MDA-MB-231, and MCF-10A were trypsinized to detach them from the flask, counted as previously described, and seeded in 96 well plates with a seeding density of 25,000 cells /mL (200 µL of suspension in each well so that the final number of cells per well was 5000) and 1 × 10^4 cells/well seeding density for suspension HL-60 cells. Adherent cells were incubated for 24 h after being seeded in the 96 well plate and treated on the following day, while suspension cells were treated on the same day of the seeding. In both cases, the incubation time after the treatment with the drug was 72 h. After 68 h incubation, the AlamarBlue was added (20 µL in each well) and the incubation time was completed. After 72 h, the change in color was measured by spectrofluorimetry at an excitation wavelength of 544 nm and emission wavelength of 590 nm. AlamarBlue is a cell viability indicator containing a compound called resazurin. AlamarBlue is water soluble, stable in culture media, non-toxic, and is permeable through the cell membrane. […]
# RPMI-8226 (Leukemia) = experiment: NCI60 screen (SRB); assay type: cell-based, human; settings: 48 h; for growth percent: one dose 10 µM
# [3] = test system: NCI-H322M (Non-Small Cell Lung Cancer); experiment: NCI60 screen (SRB); assay type: cell-based, human; settings: 48 h; for growth percent: one dose 10 µM
# HCT-116 (Colon Cancer) = experiment: NCI60 screen (SRB); assay type: cell-based, human; settings: 48 h; for growth percent: one dose 10 µM
# SW-620 (Colon Cancer) = experiment: NCI60 screen (SRB); assay type: cell-based, human; settings: for growth percent: one dose 10 µM; for GI50: five-dose
# SK-OV-3 (Ovarian Cancer) = experiment: NCI60 screen (SRB); assay type: cell-based, human; settings: 48 h; for growth percent: one dose 10 µM
# breast cancer panel = experiment: NCI60 screen (SRB), panel mean; assay type: cell-based, human; settings: BC panel; one dose 10 µM; 48 h
# [4] = test system: NCI-H522 (Non-Small Cell Lung Cancer); experiment: NCI60 screen (SRB); assay type: cell-based, human; settings: for growth percent: one dose 10 µM; for GI50: five-dose
# SF-295 (CNS Cancer) = experiment: NCI60 screen (SRB); assay type: cell-based, human; settings: 48 h; for growth percent: one dose 10 µM
# [5] = Homo sapiens, five-dose, read-out: IC50 (cell marked * in GI50 column)
# [6] = Homo sapiens, five-dose, read-out: IC50 (cell marked * in GI50 column) (converted)
structure (smiles),measurement,setting,value
"COc1ccc(/C=C/C(c2cc(OC)c(OC)c(OC)c2)n2cncn2)cc1 (stereo not drawn) [Compound 22a, (E)-1-(3-(4-Methoxyphenyl)-1-(3,4,5-trimethoxyphenyl)allyl)-1H-1,2,4-triazole]",growth percent,SF-539 (CNS Cancer),56.52%
same,growth percent,SR (Leukemia),18.93%
same,growth percent,SNB-75 (CNS Cancer),51.27%
same,growth percent,OVCAR-8 (Ovarian Cancer),52.16%
same,growth percent,MOLT-4 (Leukemia),39.43%
same,growth percent,A498 (Renal Cancer),36.38%
same,growth percent,LOX IMVI (Melanoma),49.98%
same,growth percent,[1],66.04%
same,growth percent,UO-31 (Renal Cancer),64.39%
same,growth percent,COLO 205 (Colon Cancer),30.72%
same,viability at 1 µM,"[2]; 72 h, read-out: viable cells",60%
same,growth percent,RPMI-8226 (Leukemia),50.84%
same,growth percent,[3],61.24%
same,growth percent,HCT-116 (Colon Cancer),21.99%
same,growth percent,SW-620 (Colon Cancer); 48 h,26.63%
same,growth percent,SK-OV-3 (Ovarian Cancer),35.55%
same,mean growth percentage,breast cancer panel,40.1%
same,growth percent,[4]; 48 h,28.37%
same,growth percent,SF-295 (CNS Cancer),22.52%
"COc1ccc(/C=C/C(c2cc(OC)c(OC)c(OC)c2)n2cncn2)cc1O (stereo not drawn) [Compound 22b, (E)-5-(3-(1H-1,2,4-Triazol-1-yl)-3-(3,4,5-trimethoxyphenyl)prop-1-en-1-yl)-2-methoxyphenol]",GI50,"SF-539 (CNS Cancer); Homo sapiens, five-dose",26.7 nM
same,growth percent,SF-539 (CNS Cancer),−4.58%
same,GI50,"SR (Leukemia); Homo sapiens, five-dose",24.8 nM
same,growth percent,SR (Leukemia),5.67%
same,IC50,SNB-75 (CNS Cancer); [5],> 100000 nM
same,growth percent,SNB-75 (CNS Cancer),40.99%
same,IC50,OVCAR-8 (Ovarian Cancer); [6],3630 nM
same,growth percent,OVCAR-8 (Ovarian Cancer),15.99%
same,growth percent,MOLT-4 (Leukemia),21.84%
same,GI50,"A498 (Renal Cancer); Homo sapiens, five-dose",3130 nM
same,growth percent,A498 (Renal Cancer),19.81%
same,GI50,"LOX IMVI (Melanoma); Homo sapiens, five-dose",51.1 nM
same,growth percent,LOX IMVI (Melanoma),50.87%
same,GI50,"[1]; Homo sapiens, five-dose",6070 nM
same,growth percent,[1],59.45%
same,IC50,UO-31 (Renal Cancer); [5],> 100000 nM
same,growth percent,UO-31 (Renal Cancer),54.20%
same,GI50,"COLO 205 (Colon Cancer); Homo sapiens, five-dose",3660 nM
same,growth percent,COLO 205 (Colon Cancer),60.64%
same,IC50,[2],390 nM
same,viability at 0.5 µM,"[2]; 0.5 μM, 72 h, Figure 9C",70%
same,viability at 1 µM,"[2]; 72 h, Figure 9C, read-out: cell viability",30%
same,viability at 1 µM,"[2]; 72 h, read-out: viable cells",40%
same,viability at 10 µM,"[2]; 10 μM, 72 h, Figure 9C",20%
same,IC50,[2]; 72 h,385 ± 120 nM
same,GI50,"RPMI-8226 (Leukemia); Homo sapiens, five-dose",37 nM
same,growth percent,RPMI-8226 (Leukemia),19.89%
same,IC50,[3]; [5],> 100000 nM
same,growth percent,[3],54.65%
same,GI50,"HCT-116 (Colon Cancer); Homo sapiens, five-dose",41 nM
same,growth percent,HCT-116 (Colon Cancer),10.52%
same,GI50,"SW-620 (Colon Cancer); Homo sapiens, SW-620, 48 h",39 nM
same,GI50,SW-620 (Colon Cancer); 48 h,39.4 nM
same,growth percent,SW-620 (Colon Cancer); 48 h,27.62%
same,IC50,SK-OV-3 (Ovarian Cancer); [5],> 100000 nM
same,growth percent,SK-OV-3 (Ovarian Cancer),12.67%
same,mean growth percentage,breast cancer panel,29.1%
same,GI50,"[4]; Homo sapiens, NCI-H522, 48 h",22 nM
same,GI50,[4]; 48 h,22.3 nM
same,growth percent,[4]; 48 h,13.04%
same,IC50,SF-295 (CNS Cancer); [6],3720 nM
same,growth percent,SF-295 (CNS Cancer),1.43%
"COc1ccc(/C=C/C(c2cc(OC)c(OC)c(OC)c2)n2ccnc2)cc1O (stereo not drawn) [Compound 23b, (E)-5-(3-(1H-Imidazol-1-yl)-3-(3,4,5-trimethoxyphenyl)prop-1-en-1-yl)-2-methoxyphenol]",growth percent,SF-539 (CNS Cancer),23.09%
same,growth percent,SR (Leukemia),6.18%
same,growth percent,SNB-75 (CNS Cancer),20.04%
same,growth percent,OVCAR-8 (Ovarian Cancer),40.97%
same,growth percent,MOLT-4 (Leukemia),31.88%
same,growth percent,A498 (Renal Cancer),67.46%
same,growth percent,LOX IMVI (Melanoma),46.09%
same,growth percent,[1],81.22%
same,growth percent,UO-31 (Renal Cancer),59.92%
same,growth percent,COLO 205 (Colon Cancer),89.81%
same,viability at 0.1 µM,"[2]; 0.1 μM, 72 h, read-out: viable cells",75%
same,viability at 1 µM,"[2]; 72 h, read-out: viable cells",74%
same,growth percent,RPMI-8226 (Leukemia),15.14%
same,growth percent,[3],45.84%
same,growth percent,HCT-116 (Colon Cancer),16.67%
same,growth percent,SW-620 (Colon Cancer); 48 h,17.41%
same,growth percent,SK-OV-3 (Ovarian Cancer),33.54%
same,mean growth percentage,breast cancer panel,38.1%
same,growth percent,[4]; 48 h,24.65%
same,growth percent,SF-295 (CNS Cancer),16.59%
"COc1ccc(C2CC(n3ccnc3)c3cc(OC)c(OC)c(OC)c32)cc1O (stereo not drawn) [Compound 27a, 5-(3-(1H-Imidazol-1-yl)-5,6,7-trimethoxy-2,3-dihydro-1H-inden-1-yl)-2-methoxyphenol]",growth percent,SF-539 (CNS Cancer),89.80%
same,growth percent,SR (Leukemia),35.42%
same,growth percent,SNB-75 (CNS Cancer),90.16%
same,growth percent,OVCAR-8 (Ovarian Cancer),89.25%
same,growth percent,MOLT-4 (Leukemia),90.04%
same,growth percent,A498 (Renal Cancer),88.34%
same,growth percent,LOX IMVI (Melanoma),86.38%
same,growth percent,[1],100.83%
same,growth percent,UO-31 (Renal Cancer),79.93%
same,growth percent,COLO 205 (Colon Cancer),106.99%
same,growth percent,RPMI-8226 (Leukemia),94.65%
same,growth percent,[3],101.51%
same,growth percent,HCT-116 (Colon Cancer),81.13%
same,growth percent,SW-620 (Colon Cancer); 48 h,62.47%
same,growth percent,SK-OV-3 (Ovarian Cancer),86.31%
same,mean growth percentage,breast cancer panel,79.1%
same,growth percent,[4]; 48 h,50.13%
same,growth percent,SF-295 (CNS Cancer),57.51%
